Experimental data taken from ChEMBL document CHEMBL4364351, “PROTAC Degradation of Bromodomain for the Treatment of Hyperplasia and Cancer” (ACS Med Chem Lett, 2019).
pIC50: −log10 of the molar value.

Legend:
Type in all cases: cell-based
[1] = target: Protein cereblon/Serine/threonine-protein kinase TBK1 (Homo sapiens) (UniProt Q9UHD2+Q96SW2); assay: Protac activity at CRBN/TBK1 in human Panc02.13 cells assessed as TBK1 degradation at 0.1 to 1 uM after 16 hrs by Western blot analysis relative to control
Chain of Protein cereblon/Serine/threonine-protein kinase TBK1 (Homo sapiens) (Q96SW2 whole entry, looked up): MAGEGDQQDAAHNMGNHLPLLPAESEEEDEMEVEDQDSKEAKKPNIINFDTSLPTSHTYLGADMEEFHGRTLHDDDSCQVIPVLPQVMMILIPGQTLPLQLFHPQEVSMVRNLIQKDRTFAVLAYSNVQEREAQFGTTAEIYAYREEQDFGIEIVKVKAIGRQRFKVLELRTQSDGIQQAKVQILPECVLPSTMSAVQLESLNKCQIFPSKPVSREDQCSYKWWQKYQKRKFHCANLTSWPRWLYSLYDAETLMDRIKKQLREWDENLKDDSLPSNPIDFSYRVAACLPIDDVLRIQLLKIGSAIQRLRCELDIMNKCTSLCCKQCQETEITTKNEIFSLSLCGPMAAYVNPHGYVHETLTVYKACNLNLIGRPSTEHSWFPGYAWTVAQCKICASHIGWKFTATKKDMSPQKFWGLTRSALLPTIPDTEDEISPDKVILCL
Chain of Protein cereblon/Serine/threonine-protein kinase TBK1 (Homo sapiens) (Q9UHD2 whole entry, looked up): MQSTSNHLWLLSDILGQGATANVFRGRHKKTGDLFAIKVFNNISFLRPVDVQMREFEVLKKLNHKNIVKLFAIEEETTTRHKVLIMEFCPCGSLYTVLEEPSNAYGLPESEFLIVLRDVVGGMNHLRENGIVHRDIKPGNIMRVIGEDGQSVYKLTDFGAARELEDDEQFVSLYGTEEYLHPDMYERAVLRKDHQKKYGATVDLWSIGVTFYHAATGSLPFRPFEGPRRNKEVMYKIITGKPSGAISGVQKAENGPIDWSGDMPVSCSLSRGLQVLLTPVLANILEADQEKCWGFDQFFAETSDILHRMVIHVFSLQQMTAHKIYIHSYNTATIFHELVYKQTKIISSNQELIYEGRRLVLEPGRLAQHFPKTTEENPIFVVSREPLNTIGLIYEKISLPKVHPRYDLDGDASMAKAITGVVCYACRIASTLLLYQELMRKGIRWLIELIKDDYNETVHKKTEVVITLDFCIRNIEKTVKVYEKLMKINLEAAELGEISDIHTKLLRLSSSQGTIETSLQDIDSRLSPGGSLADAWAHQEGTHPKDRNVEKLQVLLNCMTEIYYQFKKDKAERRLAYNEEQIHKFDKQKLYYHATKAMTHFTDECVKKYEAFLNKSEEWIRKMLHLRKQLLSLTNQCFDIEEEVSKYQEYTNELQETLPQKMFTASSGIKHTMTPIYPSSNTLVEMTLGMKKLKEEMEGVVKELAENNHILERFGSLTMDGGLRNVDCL

[2] = target: Protein cereblon/Bromodomain-containing protein 4 (Homo sapiens, UniProt O60885+Q96SW2); assay: Protac activity at CRBN/BRD4 in human 22Rv1 cells assessed as c-MYC degradation after 18 hrs by ELISA
Chain of Protein cereblon/Bromodomain-containing protein 4 (Q96SW2 whole entry, looked up, other chains not shown): as the sequence (Q96SW2 whole entry, looked up) above

[3] = target: Protein cereblon/Androgen receptor (Homo sapiens) (UniProt P10275+Q96SW2); assay: Protac activity at CRBN/AR in human VCaP cells assessed as AR degradation at 0.0001 to 1 uM after 16 hrs by sandwich ELISA relative to control
Chain of Protein cereblon/Androgen receptor (Homo sapiens) (P10275 whole entry, looked up): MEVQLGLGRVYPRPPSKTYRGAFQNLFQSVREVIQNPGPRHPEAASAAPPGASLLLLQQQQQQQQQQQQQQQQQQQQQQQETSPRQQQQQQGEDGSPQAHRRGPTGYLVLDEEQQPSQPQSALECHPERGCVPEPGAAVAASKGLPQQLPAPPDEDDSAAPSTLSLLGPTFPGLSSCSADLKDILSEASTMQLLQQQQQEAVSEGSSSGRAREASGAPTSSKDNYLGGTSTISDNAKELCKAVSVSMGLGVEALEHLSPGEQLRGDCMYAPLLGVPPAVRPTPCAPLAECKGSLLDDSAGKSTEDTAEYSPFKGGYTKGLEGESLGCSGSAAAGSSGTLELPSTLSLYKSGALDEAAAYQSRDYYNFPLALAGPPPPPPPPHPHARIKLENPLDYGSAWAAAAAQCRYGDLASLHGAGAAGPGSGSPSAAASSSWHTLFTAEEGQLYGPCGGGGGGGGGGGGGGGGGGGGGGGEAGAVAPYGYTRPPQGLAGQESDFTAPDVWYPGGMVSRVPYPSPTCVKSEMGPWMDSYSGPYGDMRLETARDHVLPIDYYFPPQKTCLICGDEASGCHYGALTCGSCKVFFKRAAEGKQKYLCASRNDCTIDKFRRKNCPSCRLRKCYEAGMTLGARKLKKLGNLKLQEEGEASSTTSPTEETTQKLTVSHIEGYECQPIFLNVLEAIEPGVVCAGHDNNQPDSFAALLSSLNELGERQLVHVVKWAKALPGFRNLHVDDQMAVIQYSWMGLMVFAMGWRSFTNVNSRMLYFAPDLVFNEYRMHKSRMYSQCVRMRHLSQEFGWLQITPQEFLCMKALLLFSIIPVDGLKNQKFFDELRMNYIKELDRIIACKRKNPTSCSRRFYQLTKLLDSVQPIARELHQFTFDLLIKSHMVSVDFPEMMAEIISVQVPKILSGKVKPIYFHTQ
Chain of Protein cereblon/Androgen receptor (Homo sapiens) (Q96SW2 whole entry, looked up): as the sequence (Q96SW2 whole entry, looked up) above

[4] = target: Protein cereblon/Steroid hormone receptor ERR1 (Homo sapiens) (UniProt P11474+Q96SW2); assay: Protac activity at CRBN/ERRalpha in human NAMALWA cells assessed as ERRalpha degradation at 0.1 to 1 uM after 16 hrs by Western blot analysis relative to control
Chain of Protein cereblon/Steroid hormone receptor ERR1 (Homo sapiens) (P11474 whole entry, looked up): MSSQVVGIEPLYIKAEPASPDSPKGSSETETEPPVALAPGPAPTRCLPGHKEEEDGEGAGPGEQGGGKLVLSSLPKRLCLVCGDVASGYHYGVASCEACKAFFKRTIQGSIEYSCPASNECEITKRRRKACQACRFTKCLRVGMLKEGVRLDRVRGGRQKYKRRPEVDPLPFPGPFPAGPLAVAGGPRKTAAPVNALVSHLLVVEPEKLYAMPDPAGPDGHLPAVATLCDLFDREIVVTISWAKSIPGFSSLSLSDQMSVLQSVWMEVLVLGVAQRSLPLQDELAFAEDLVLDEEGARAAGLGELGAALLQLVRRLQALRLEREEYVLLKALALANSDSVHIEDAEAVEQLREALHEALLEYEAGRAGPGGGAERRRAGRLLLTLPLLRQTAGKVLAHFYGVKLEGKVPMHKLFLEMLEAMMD
Chain of Protein cereblon/Steroid hormone receptor ERR1 (Homo sapiens) (Q96SW2 whole entry, looked up): as the sequence (Q96SW2 whole entry, looked up) above

## CN(CCCNc1nc(Nc2ccc(OCCOCCOCCOCCOCCOCCNc3cccc4c3C(=O)N(C3CCC(=O)NC3=O)C4=O)cc2)ncc1Br)C(=O)C1CCC1 (configuration not stated)
[1]
  Activity: > 50%

## Cc1sc2c(c1C)C(c1ccc(Cl)cc1)=NC(CC(=O)N[C@@H](C)c1ccc(OCCOCCNc3cccc4c3C(=O)N(C3CCC(=O)NC3=O)C4=O)cc1)c1nnc(C)n1-2 (some centres not stated)
[2]
  pIC50: > 7.30

## CC1(C)C(=O)N(c2ccc(C#N)c(C(F)(F)F)c2)C(=S)N1c1ccc(-c2ccc(OCCCCCNc3cccc4c3C(=O)N(C3CCC(=O)NC3=O)C4=O)cc2)cc1 (configuration not stated)
[3]
  Activity: > 50%

## CN(CCCNc1nc(Nc2ccc(OCCOCCOCCOCCOCCNc3cccc4c3C(=O)N(C3CCC(=O)NC3=O)C4=O)cc2)ncc1Br)C(=O)C1CCC1 (configuration not stated)
[1]
  Activity: > 50%

## COc1cc(/C=C2\SC(=O)N(CCCOCCNc3cccc4c3C(=O)N(C3CCC(=O)NC3=O)C4=O)C2=O)ccc1Oc1ccc(C#N)cc1C(F)(F)F (configuration not stated)
[4]
  Activity: > 50%

## Cc1sc2c(c1C)C(c1ccc(Cl)cc1)=NC(CC(=O)NCCOCCNc1cccc3c1C(=O)N(C1CCC(=O)NC1=O)C3=O)c1nnc(C)n1-2 (configuration not stated)
[2]
  pIC50: > 7.30

## CC1(C)[C@H](NC(=O)c2ccc(OCCCCCOCCCNc3cccc4c3C(=O)N(C3CCC(=O)NC3=O)C4=O)cc2)C(C)(C)[C@H]1Oc1ccc(C#N)c(Cl)c1 (some centres not stated)
[3]
  Activity: > 50%
